Results reported in patent US9328374B2, “Selective culture medium and method for detecting carbapenem-resistant bacteria in a test sample” (Institut National de la Sante et de la Recherche Medicale …, priority 2011, dated 2016).
Read-outs that look alike come from different tables or passages of the source.

What was measured:
E. coli = test: MIC of imipenem, ertapenem and meropenem; format: cell-based, Escherichia coli; conditions: Escherichia coli, read-out: MIC
E. aerogenes = test: MIC of imipenem, ertapenem and meropenem; format: cell-based, Enterobacter aerogenes; conditions: Klebsiella aerogenes, read-out: MIC
P. stuartii = test: MIC of imipenem, ertapenem and meropenem; format: cell-based, Providencia stuartii
enterobacterial isolates = test: MIC of imipenem, ertapenem and meropenem (groups of isolates, other species); format: cell-based, Enterobacteriaceae
P. rettgeri = test: MIC of imipenem, ertapenem and meropenem; format: cell-based, Providencia rettgeri
C. koseri = test: MIC of imipenem, ertapenem and meropenem; format: cell-based

## C[C@@H](O)[C@H]1C(=O)N2C(C(=O)O)=C(S[C@@H]3CN[C@H](C(=O)Nc4cccc(C(=O)O)c4)C3)[C@H](C)[C@H]12 [ETP, ertapenem]
E. coli; E. coli BER (OXA-48 + CTX-M-15)
  MIC: 1.5 µg/mL
E. coli; E. coli BER, OXA-48 + TEM-1 + CTX-M-15
  MIC: 1.5 µg/mL
E. coli; E. coli BOK (OXA-48 + CTX-M-15)
  MIC: 0.38 µg/mL
E. coli; E. coli BOK, OXA-48 + CTX-M-15
  MIC: 0.38 µg/mL
E. coli; E. coli BON (OXA-48 + CTX-M-24 + TEM-1)
  MIC: 0.5 µg/mL
E. coli; E. coli BON, OXA-48 + TEM-1 + CTX-M-24
  MIC: 0.5 µg/mL
E. coli; E. coli BOU (OXA-48 + CTX-M-15)
  MIC: 0.75 µg/mL
E. coli; E. coli BOU, OXA-48 + CTX-M-15
  MIC: 0.75 µg/mL
E. coli; E. coli COL (KPC-2)
  MIC: 4 µg/mL
E. coli; E. coli COL, KPC-2 + TEM-1 + CTX-M-9
  MIC: 4 µg/mL
E. coli; E. coli DIH (VIM-19)
  MIC: 16 µg/mL
E. coli; E. coli DIH, VIM-19
  MIC: 16 µg/mL
E. coli; E. coli DIN, KPC-2 + TEM-1 + OXA-1
  MIC: > 32 µg/mL
E. coli; E. coli E14 (CTX-M-14)
  MIC: 0.12 µg/mL
E. coli; E. coli E14, CTX-M-14, non-carbapenemase producer
  MIC: 0.012 µg/mL
E. coli; E. coli ECA, ACC-1, non-carbapenemase producer
  MIC: 0.012 µg/mL
E. coli; E. coli EVB, VEB-1, non-carbapenemase producer
  MIC: 0.012 µg/mL
E. coli; E. coli FOR, CTX-M-15, non-carbapenemase producer
  MIC: 0.012 µg/mL
E. coli; E. coli GEN (NDM-1 + OXA-1 + CMY-30 + TEM-1)
  MIC: > 32 µg/mL
E. coli; E. coli GEN, NDM-1 + TEM-1 + CMY-30 + OXA-1
  MIC: > 32 µg/mL
E. coli; E. coli GOG (OXA-48 + CTX-M-24)
  MIC: 1.5 µg/mL
E. coli; E. coli MET, Chromosome-encoded extended-spectrum cephalosporinase, non-carbapenemase producer
  MIC: 0.012 µg/mL
E. coli; E. coli NAA (OXA-48 + CTX-M-24)
  MIC: 2 µg/mL
E. coli; E. coli OM3, OXA-48 + TEM-1 + CTX-M-15
  MIC: 1 µg/mL
E. coli; E. coli OM20, NDM-1 + TEM-1 + CTX-M-15
  MIC: > 32 µg/mL
E. coli; E. coli OM22, OXA-48 + TEM-1 + CTX-M-15
  MIC: 1 µg/mL
E. coli; E. coli PSP (KPC-2)
  MIC: 0.5 µg/mL
E. coli; E. coli PSP, KPC-2 + TEM-1 + OXA-1
  MIC: 0.5 µg/mL
E. coli; E. coli RIC (NDM-1 + OXA-1 + OXA-10 + CMY-16)
  MIC: 3 µg/mL
E. coli; E. coli RIC, NDM-1 + CMY-16 + OXA-1 + OXA-10
  MIC: 3 µg/mL
E. coli; E. coli ROB (OXA-48)
  MIC: 0.75 µg/mL
E. coli; E. coli ROB, OXA-48
  MIC: 0.75 µg/mL
E. coli; E. coli SYD, CMY-2, non-carbapenemase producer
  MIC: 0.012 µg/mL
E. coli; E. coli TWA, IMP-8 + SHV-12
  MIC: 8 µg/mL
E. coli; E. coli ZAN, OXA-48 + TEM-1 + CTX-M-14
  MIC: 8 µg/mL
E. coli; strain E. coli 1008, TEM-1 + CTX-M-1, non-carbapenemase producer
  MIC: 0.016 µg/mL
E. coli; strain E. coli 1034, TEM-1 + SHV-38, non-carbapenemase producer
  MIC: 0.006 µg/mL
E. coli; strain E. coli 1048, TEM-1 + SHV-2a, non-carbapenemase producer
  MIC: 0.012 µg/mL
E. coli; strain E. coli 10121, CTX-M-2, non-carbapenemase producer
  MIC: 0.016 µg/mL
E. coli; strain E. coli AME, OXA-48 + CTX-M-24
  MIC: 0.5 µg/mL
E. coli; strain E. coli BON, OXA-48 + TEM-1 + CTX-M-24
  MIC: 0.5 µg/mL
E. aerogenes; E. aerogenes 1009, TEM-24, non-carbapenemase producer
  MIC: 0.12 µg/mL
E. aerogenes; E. aerogenes 1085 (TEM-24)
  MIC: 0.19 µg/mL
E. aerogenes; E. aerogenes 1085, TEM-24, non-carbapenemase producer
  MIC: 0.19 µg/mL
E. aerogenes; strain E. aerogenes 1085, TEM-24, non-carbapenemase producer
  MIC: 0.19 µg/mL
P. stuartii; P. stuartii PS1 (NDM-1 + CMY-6 + OXA-1)
  MIC: 0.38 µg/mL
P. stuartii; P. stuartii PS1, NDM-1 + CMY-6 + OXA-1
  MIC: 0.38 µg/mL
P. stuartii; Providencia stuartii, P. stuartii NDM (NDM-1 + OXA-1 + CMY-6), read-out: MIC
  MIC: 0.38 µg/mL
P. stuartii; strain P. stuartii PS1, NDM-1 + CMY-6 + OXA-1
  MIC: 0.38 µg/mL
Enterobacterial isolates; Example 3, 19 isolates (1 Citrobacter freundii, 2 E. coli, 4 E. cloacae, 12 K. pneumoniae) with porin defect, read-out: MIC values of ertapenem of ertapenem non-susceptible isolates
  MIC: > 0.25 µg/mL
Enterobacterial isolates; S. marcescens 0911033, IMP-1
  MIC: >32 µg/mL
Enterobacterial isolates; S. marcescens 1008091, VIM-1+ CTX-M-15
  MIC: >32 µg/mL
Enterobacterial isolates; S. marcescens C7052, KPC-2 + TEM-1 + SHV-12
  MIC: >32 µg/mL
Enterobacterial isolates; Serratia marcescens, S. marcescens D6403, KPC-2 + TEM-1, read-out: MIC
  MIC: > 32 µg/mL
P. rettgeri; P. rettgeri RAP, OXA-181 + OXA-1
  MIC: 1 µg/mL
P. rettgeri; Providencia rettgeri, P. rettgeri RAP (OXA-181 + OXA-1), read-out: MIC
  MIC: 1 µg/mL
P. rettgeri; strain P. rettgeri RAP, OXA-181 + OXA-1
  MIC: 1 µg/mL
C. koseri; C. koseri VER (OXA-48)
  MIC: 2 µg/mL
C. koseri; C. koseri VER, OXA-48
  MIC: 2 µg/mL
C. koseri; Citrobacter koseri, C. koseri ROU, OXA-48, read-out: MIC
  MIC: 2 µg/mL
C. koseri; strain C. koseri VER, OXA-48
  MIC: 2 µg/mL
